One test has as its target T1, BxACE-3 (Bursaphelenchus xylophilus, UniProt D2JYX1).
T1 construct: gene AChE3; recombinant, baculovirus system
Put plainly: colorimetric acetylthiocholine/DTNB assay. The format is biochemical. The settings on record: read-out: % inhibition at 2 mM.

The next test addresses T2, BxACE-1 (Bursaphelenchus xylophilus, UniProt D2JYW9).
T2 construct: gene AChE1; recombinant, baculovirus system
In words: colorimetric acetylthiocholine/DTNB assay. The settings on record: read-out: % inhibition at 2 mM. The format is biochemical.

T1 sequence (D2JYX1 entry or part of it): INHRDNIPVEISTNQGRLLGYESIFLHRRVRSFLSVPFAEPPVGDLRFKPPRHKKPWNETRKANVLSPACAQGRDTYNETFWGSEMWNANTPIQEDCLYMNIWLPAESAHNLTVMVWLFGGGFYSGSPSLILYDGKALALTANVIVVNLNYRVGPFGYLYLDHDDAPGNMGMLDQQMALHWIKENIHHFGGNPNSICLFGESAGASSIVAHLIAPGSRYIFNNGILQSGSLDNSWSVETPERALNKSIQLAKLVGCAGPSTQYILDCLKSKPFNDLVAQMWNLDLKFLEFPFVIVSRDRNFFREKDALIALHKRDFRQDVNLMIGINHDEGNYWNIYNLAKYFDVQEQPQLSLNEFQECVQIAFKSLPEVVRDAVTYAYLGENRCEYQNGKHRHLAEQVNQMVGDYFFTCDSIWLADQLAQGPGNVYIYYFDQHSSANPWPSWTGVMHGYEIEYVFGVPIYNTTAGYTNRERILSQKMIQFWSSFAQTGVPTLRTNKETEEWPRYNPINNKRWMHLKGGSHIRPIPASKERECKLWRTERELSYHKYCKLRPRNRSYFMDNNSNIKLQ
T2 sequence (D2JYW9 entry or part of it): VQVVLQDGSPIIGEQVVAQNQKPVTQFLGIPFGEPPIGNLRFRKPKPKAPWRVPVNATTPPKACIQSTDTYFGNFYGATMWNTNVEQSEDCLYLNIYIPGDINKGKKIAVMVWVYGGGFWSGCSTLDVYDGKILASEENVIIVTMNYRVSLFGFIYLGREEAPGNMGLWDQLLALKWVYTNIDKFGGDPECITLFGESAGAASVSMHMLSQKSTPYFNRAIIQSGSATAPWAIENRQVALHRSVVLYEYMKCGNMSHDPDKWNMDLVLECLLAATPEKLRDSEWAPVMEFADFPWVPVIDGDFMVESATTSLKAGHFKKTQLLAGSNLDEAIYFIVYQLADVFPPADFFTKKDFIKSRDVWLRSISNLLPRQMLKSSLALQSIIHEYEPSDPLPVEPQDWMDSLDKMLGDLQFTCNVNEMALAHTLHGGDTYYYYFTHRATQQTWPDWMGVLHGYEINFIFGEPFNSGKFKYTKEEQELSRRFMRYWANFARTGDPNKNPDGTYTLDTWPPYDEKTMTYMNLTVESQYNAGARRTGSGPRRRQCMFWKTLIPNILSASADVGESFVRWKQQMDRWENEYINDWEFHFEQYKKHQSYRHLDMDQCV

For the compound `C=C(C)C1CC=C(C)CC1` (stereo not drawn) [limonene], the inhibition at 2000 µM on BxACE-3 was about 10%.
In the case of `CC1=CCC2CC1C2(C)C` (stereo not drawn) [α-pinene], the inhibition at 2000 µM on BxACE-1 was about 25%; at BxACE-3 it was about 10%.
